Test results as given in patent publication US5808060A, “Fused isoindolones” (Cephalon, Inc., priority 1996, dated 1998).

Tests used:
[1] = test system: dissociated rat embryonic spinal cord culture (ChAT activity); test: Spinal Cord ChAT Activity Assay; type: cell-based; conditions: after 2-3 hour plating period; single application; ChAT measured 48 hours later; control cultures not treated
Source text: As noted, ChAT is a specific biochemical marker for functional cholinergic neurons. Cholinergic neurons represent the major cholinergic input into the hippocampal formation, olfactory nucleus, interpeduncular nucleus, cortex, amygdala, and parts of the thalamus. In the spinal cord, the motor neurons are cholinergic neurons which contain ChAT (Phelps et al., J. Comp. Neurol. 273: 459-472 (1988)). ChAT activity has been used to study the effects of neurotrophins (e.g., NGF or NT-3) on the survival and/or function of cholinergic neurons. The ChAT assay also serves as an indication of the regulation of ChAT levels within cholinergic neurons.
Fused isoindolone derivatives increased ChAT activity in the dissociated rat embryonic spinal cord culture assay (FIG. 1). […]
Methods: Fetal rat spinal cord cells were dissociated, and experiments were performed as described (Smith et al., J. Cell Biology 101: 1608-1621 (1985); Glicksman et al., J. Neurochem. 61: 210-221 (1993)). […] ChAT activity was measured after 2 days in vitro using a modification of the Fonnum procedure (Fonnum, J. Neurochem. 24: 407-409 (1975)) according to McManaman et al. and Glicksman et al. (McManaman et al., Developmental Biology 125: 311-320 (1988); Glicksman et al., J. Neurochem. 61: 210-221 (1993)).

protein kinase C = test: PKC Activity Inhibition Assay; type: biochemical
Description: Fused isoindolones inhibited the activity of protein kinase C (Table VI). The protein kinase C assay has been disclosed (Murakata et al., U.S. Pat. No. 4,923,986; Kikkawa et al., J. Biol. Chem. 257: 13341-13348 (1982)). The assay was performed with several concentrations of fused isoindolones. The concentration at which protein kinase C was 50% inhibited (IC50) was determined.

trkA tyrosine kinase = trkA tyrosine kinase (Homo sapiens, UniProt P04629); test: trkA Tyrosine Kinase Activity Inhibition Assay (ELISA); type: biochemical; conditions: PLCγ/pGEX substrate, 16 μM ATP, 37° C., 15 min, read-out: trk A INHIBITION IC50
trkA tyrosine kinase, sequence (P04629 33-796): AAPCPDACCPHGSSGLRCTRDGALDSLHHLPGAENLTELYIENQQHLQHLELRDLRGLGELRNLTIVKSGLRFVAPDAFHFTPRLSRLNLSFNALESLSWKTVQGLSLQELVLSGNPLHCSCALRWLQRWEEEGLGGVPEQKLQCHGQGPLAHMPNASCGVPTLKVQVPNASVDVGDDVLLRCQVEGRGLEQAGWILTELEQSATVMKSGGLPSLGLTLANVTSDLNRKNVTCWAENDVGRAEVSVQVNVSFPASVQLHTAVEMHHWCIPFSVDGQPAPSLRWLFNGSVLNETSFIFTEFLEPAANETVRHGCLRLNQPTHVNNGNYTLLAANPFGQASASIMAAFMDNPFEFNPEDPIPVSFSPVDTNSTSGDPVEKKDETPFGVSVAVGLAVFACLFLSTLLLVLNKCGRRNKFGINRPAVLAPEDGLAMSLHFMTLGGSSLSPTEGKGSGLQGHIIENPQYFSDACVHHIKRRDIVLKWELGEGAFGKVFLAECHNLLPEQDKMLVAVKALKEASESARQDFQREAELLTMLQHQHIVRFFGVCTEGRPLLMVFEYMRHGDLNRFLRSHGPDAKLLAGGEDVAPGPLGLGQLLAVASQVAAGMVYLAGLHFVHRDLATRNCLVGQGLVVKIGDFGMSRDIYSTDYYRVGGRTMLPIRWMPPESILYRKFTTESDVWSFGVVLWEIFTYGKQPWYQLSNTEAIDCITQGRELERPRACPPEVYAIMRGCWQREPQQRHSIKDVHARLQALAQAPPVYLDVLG
Description: Fused isoindolones inhibited trkA tyrosine kinase activity as determined by ELISA. trkA is a high affinity receptor for neurotrophins. Fused isoindolones were added to 96-well microtiter plates that were previously coated with a phosphorylation substrate (phospholipase C-γ (PLCγ)/pGEX fusion protein) (see Rotin, et al., 11 EMBO J. 559, 1992). These compounds were then tested for the ability to inhibit substrate phosphorylation by the trkA tyrosine kinase.
Methods: 96-well ELISA plates (Nunc) were coated with 100 μl/well of the phosphorylation substrate (40 μg/ml) PLCγ/pGEX fusion protein) in 20 mM Tris, pH 7.6, 137 mM NaCl, and 0.02% NaN3 overnight at 4° C. […] Plates were washed three times with TBST, followed by two washes with TBS (TBST sans Tween-20). Fused pyrrolocarbozoles were then added at various concentrations to a reaction mixture (50 mM HEPES, pH 7.4, 5 mM MnCl2, 5 mM MgCl2, 140 mM NaCl, 16 μM ATP, and 15 ng trkA in a total volume of 100 μL.). As a negative control, 100 mM EDTA was included in the reaction solution. The plates were then incubated at 37° C. for 15 min. The detection antibody, monoclonal anti-phosphotyrosine antibody (UBI), was added at a dilution of 1:2000 in TBST, and incubated for 1 hour at 37° C. […] The colored product was read at 490 nm in a microplate reader (Biotek).

[2] = test system: basal forebrain cultures (ChAT activity); test: Basal Forebrain ChAT Activity Assay; type: cell-based, rat; conditions: preliminary assays; ChAT assessed 5 days after plating
Description: Fused isoindolone derivatives were tested for the ability to increase ChAT activity of basal forebrain cultures.
Methods: The basal forebrain was dissected from rat embryos (day 17 or 18 embryos) and the cells were dissociated with a neutral protease (Dispase™, Collaborative Research). Neurons were plated at a density of 5×10^4 cells/well (1.5×10^5 cells/cm^2) in poly-l-ornithine and laminin coated plates. Cells were cultured in serum-free N2 medium containing 0.05% BSA at 37° C. in a humidified atmosphere, 5% CO2 /95% air. ChAT activity was assessed 5 days after plating by using the ChAT assay as described in Example III(A)(1).

Row | IC50 (protein kinase C) [nM] | IC50 (trkA tyrosine kinase) [nM] | Structure (SMILES) | increased ChAT activity over control cultures (spinal cord) [1] [% over control] | effect on basal forebrain ChAT activity [2]
1 | 2000 | 190 | O=C1NCc2c1c1c(c3c2-c2ccccc2C3)Cc2ccccc2-1 [Compound I-2, 1H-Indenyl[2,3-c]-1H-indenyl[2,3-e]-3H-isoindol-1-one] | 150 | 
2 |  |  | O=C1NC(=O)c2c1c1c3ccccc3sc1c1sc3ccccc3c21 [Compound I-3, Benzothieno[2,3-c]benzothieno[2,3-e]isoindol-1,3-dione] |  | did not increase ChAT activity
3 | 650 |  | O=C1NC(=O)c2c1c1c(c3c2-c2ccccc2C3)Cc2ccccc2-1 [Compound I-1, 1H-Indenyl[2,3-c]-1H-indenyl[2,3-e]isoindol-1,3-dione] |  | 
4 |  |  | O=C1NCc2c1c1c3ccccc3sc1c1sc3ccccc3c21 [Compound I-4, Benzothieno[2,3-c]benzothieno[2,3-e]isoindol-1-one] |  | did not increase ChAT activity
